We go through 1 compound from patent US11479533B2, “Inhibitors of Rho associated coiled-coil containing protein kinase” (KADMON CORPORATION, LLC, priority 2017, dated 2022).

Series [1] deals with histamine-induced vascular permeability. Briefly: Histamine-induced vascular permeability model in mice. Conditions: single oral dose 1 hr. prior to histamine injection. It is filed as in vivo, mouse. The procedure: Histamine-induced vascular permeability model in mice: 7-8 weeks old Balb/c female mice were acclimated at least 3 days, and randomly assigned to groups. Animals were injected i.v. with 1% Evans Blue at a dose 100 μl/mouse. 10 minutes later animals in disease groups were given 1 μg of histamine in 20 μl PBS intradermally on the back and sacrificed 20 minutes after administration. 20 μL PBS were injected intradermal into the animal back in sham control. Vehicle and test articles were dosed via oral gavage accordingly. Positive control salbutamol was administered 15 minutes before Evans blue. 20 minutes post challenge with histamine, animals were euthanized. The skin was then inverted, the lesion diameters were measured. The area of the lesion was calculated and expressed in square millimeters. Following diameter measurements, Evan's Blue dye was extracted from the skin tissue and the optical density was measured. Data are calculated against a spiked in Evan's Blue standard curve. The extent of compound efficacy was quantitated by calculating both the overall skin spot area and the amount of Evans Blue dye permeating the skin. 20 Minutes post challenge with histamine, animals were euthanized, the lesion diameters were measured. The area of the lesion was calculated and expressed in square millimeters. […]

The subject of series [2] is ACTA2-promoter-driven-luciferase in NIH3T3 cells. As to the kind of experiment: NIH3T3 Acta2-promoter driven-luciferase assay. It is filed as cell-based. To be noted: Mus musculus, plus TGFβ1, 24 hr, read-out: NIH3T3, Acta2-luc, IC50. The method in brief:
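Stable NIH3T3 line carrying luciferase reporter under human ACTA2 promoter (−1000-1 bp); confluent cells given 9-point compound dilutions with TGFβ1 for 24 hr. Lysed cells read for luciferase; IC50 from nonlinear regression fit.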

Series [3] has as its system ppMlc (T18/S19) and pMypt (T853) in Svec 4-10 mouse endothelial cells. As to the kind of experiment: Western blot of Svec 4-10 cell lysates. To be noted: 110 nM, 120 min. It is filed as cell-based. The procedure:
FIG. 1d. Western blot of SVEC4-10 cell lysates to visualize ppMlc (T18/S19) & pMYPT (T853) levels following treatment with the compound of Example 2 for 120 min. SVEC4-10 cells were treated with the compound and phosphorylated proteins were visualized by western blotting.
Compounds ROCK activities were tested in additional cell types. Svec 4-10 mouse endothelial cells were treated with the compound of Example 2 for 120 min and ppMlc (T18/S19) and pMypt (T853) levels were visualized by western blotting.
On the technique in general: In western blotting, separated proteins are transferred to a membrane and probed.

Series [4] deals with ppMlc (T18/S19) levels in A7R5 cells. As to the kind of experiment: A7R5 in-cell ELISA assay (ppMlc). It is filed as cell-based, rat. Conditions: Rattus norvegicus, A7R5, A7R5 cells. The method in brief: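 Rat aortic smooth muscle A7R5 cells in DMEM with 10% FBS, seeded 24 h, then treated 90 min with 9-point 2-fold compound dilutions. ppMlc (T18/S19) measured by colorimetric in-cell ELISA; cellular IC50 from nonlinear regression curve fit.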

The nature of series [5]: Brain and plasma concentrations in mouse by HPLC/MS/MS. It is filed as in vivo. Conditions: 2.5 mg/kg IV. The procedure:
Brain and plasma concentrations of select ROCK inhibitors were evaluated in mouse by HPLC/MS/MS at 15 min and 2 hrs following 2.5 mg/kg IV drug administration.

Series [6] has as its system human oligodendrocyte/neuron progenitor cells. Briefly: Neurite outgrowth and differentiation of human oligodendrocyte/neuron progenitors. It is filed as cell-based. The procedure:
Thawing and proliferation of human oligodendrocyte/neuron progenitor cells (OPCs). Cryopreserved human oligodendrocyte/neuron progenitors (Millipore Cat. No. CS204496) were recovered and cultured on maltrigel (BD Cat. No. 356324) coated T-25 flask in expansion media containing OPC/neuron basal medium, N21 medium supplement, recombinant human bFGF, PDGF-AA and NT-3. When cells reached 80% confluent, 3 ml of Accutase was applied (Millipore SCR005) to passage cells at 1:4 ratio. Sub-cultured cells were maintained in expansion media for proliferation.
Spontaneous differentiation of human oligodendrocyte/neuron progenitors in 24-well and 96-well plates. Coat plate with 10 μg/ml poly-L-ornithine (Sigma Cat. No. P4957) overnight at room temperature. Remove the poly-L-ornithine solution and rinse the plate with 1×PBS, add 10 μg/ml laminin (Millipore Cat. No. CC095) and incubate at 37° C. for at least 2 hours. Seed cells on the coated plates in expansion media and allowed to attach overnight. The next day expansion media was removed and replaced with freshly prepared spontaneous differentiation media only containing OPC/neuron basal media and N21 media supplement. For 14 day culture, differentiation media was replaced every 3-4 days. Cells were imaged and neurite length was analyzed by IncuCyte S3 Live Cell Analysis System every 4 hours. After 14 days of differentiation, cells were fixed by 4% paraformaldehyde and stained with DAPI and Neuron-specific ß-III tubulin antibody (R&D systems, NL1195R).

Where two headings read alike, the source gives them in different places.

As usually defined, the IC50 is the concentration that gives 50% inhibition. Regarding `CNC(C(=O)Nc1ccc(-c2cn[nH]c2)cc1)c1cccc(OC)c1` (stereo not shown) [Example 2, N-(4-(1H-pyrazol-4-yl)phenyl)-2-(3-methoxyphenyl)-2-(methylamino)acetamide], the “vascular permeability induced by histamine (Evan's Blue extravasation)” value in series [1] is given as “blocked the vascular permeability induced by histamine in a dose dependent manner”. Also, the half-inhibitory concentration (IC50) in series [2] came to 352 nM; in series [4] (Table 2, read-out: pMLC IC50 (nM) A7R5) it was 120 nM; in series [4] (ppMlc (T18/S19), in-cell ELISA, read-out: ppMlc IC50) it was 86 nM. For the same compound, the “phosphorylation of ROCK targets MLC and MYPT1” value in series [3] is “efficiently blocked phosphorylation”. In addition, the concentration at 0.25 hr in series [5] (brain, 0.25 hr, read-out: Mean Conc. at 0.25 hr, Brain) was 541 ng/g; in series [5] (plasma, 0.25 hr, read-out: Mean Conc. at 0.25 hr, Plasma), 268 ng/mL. Besides, the concentration at 2 hr in series [5] (brain, 2 hr, read-out: Mean Conc. at 2 hr, Brain) was determined as 76.6 ng/g; in series [5] (plasma, 2 hr, read-out: Mean Conc. at 2 hr, Plasma), 25.7 ng/mL. Besides, in series [5] (brain/plasma, 0.25 hr, read-out: Mean Brain/Plasma Ratio at 0.25 hr), the Kp at 0.25 h came to 2.01. Also, the Kp at 2 h in series [5] (brain/plasma, 2 hr, read-out: Mean Brain/Plasma Ratio at 2 hr) was 2.99. The “neuronal differentiation and maturation” value in series [6] (14 days culture, Beta III tubulin) was “facility neuronal differentiation and maturation”. The neurite length entry in series [6] (various concentrations, 3 days culture) was “significantly increase neurite length”.
